Source: patent US6492562B1, “Racemic thioesters for production of polyketides” (Kosan Biosciences, Inc., priority 1999, dated 2002)

Test system: bacteria
Assay: Antibacterial activity
Type: cell-based

In the case of `CCC[C@H]1OC(=O)[C@H](C)[C@@H](O[C@H]2C[C@@](C)(OC)[C@@H](O)[C@H](C)O2)[C@H](C)[C@@H](O[C@@H]2O[C@H](C)C[C@H](N(C)C)[C@H]2O)[C@](C)(O)C[C@@H](C)C(=O)[C@H](C)[C@@H](O)[C@]1(C)O` [15-methylerythromycin A], the antibacterial activity is reported as “strong antibacterial activity”.
`COC1(C)CC(O[C@H]2[C@H](C)[C@@H](OC3OC(C)CC(N(C)C)C3O)[C@](C)(O)C[C@@H](C)C(=O)[C@H](C)[C@@H](O)[C@](C)(O)[C@@H](CCF)OC(=O)[C@@H]2C)OC(C)C1O` (some centres unmarked) [15-fluoroerythromycin A, 15-Fluoroerythromycin A] was tested, and the antibacterial activity was “strong antibacterial activity”.
